Like-named read-outs stand apart in the source and are kept apart here.
Tests used:
[1] = Ex vivo biodistribution in mice with U266 tumor xenografts; settings: both sexes, NSG, mouse, 60 min p.i., U266 xenograft mice; for tissue uptake at 1 h: 50 µCi; for tissue to tissue ratio at 1 h: 50 uCi, total radioactivity
Experimental: (§1) Animal studies were performed under Johns Hopkins University Animal Care and Use Committee (ACUC‐approved protocol (Principal investigator: Sridhar Nimmagadda, Ph.D. and Protocol number M021M175). Male and female NSG mice (5‐6 weeks old) were used to establish xenografts by administering 3 million cells (50% Corning Matrigel) subcutaneously to form various tumor models within 3–4 weeks. Imaging or biodistribution studies (n = 3–5) were conducted on mice with tumor volumes of 100–200 mm^3. Disseminated tumor models were developed by injecting 4–5 million cells in saline intravenously for MOLP8 and MM1S‐Luc models (n = 4–5). Luciferase expressing MM1S cell line (MM1S‐Luc) was used to monitor cancer cell dissemination in the body. Tumor establishment was confirmed by injecting D‐Luciferin intraperitoneally (150 mg kg^−1) and imaged mice after 10 min in IVIS bioluminescence imaging system. Bone marrow tumors were ready for imaging after 25–30 d of implantation.
(§2) Mice with 100–200 mm^3 tumor volume were used for ex vivo biodistribution studies. For radiotracer pharmacokinetics studies, mice with MOLP8 tumor xenografts received ≈80 µCi (2.96 MBq) [^68Ga]Ga‐AJ206 and were sacrificed at pre‐determined time points (5, 30, 60 and 120 min). Similarly, for dosimetry study, mice with MM1S tumor xenografts received ≈80 µCi (2.96 MBq) of [^68Ga]Ga‐AJ206 and were sacrificed at pre‐determined time points (5, 30, 60, 90 and 120 min). All other mice were injected with ≈50µCi (1.85 MBq) [^68Ga]Ga‐AJ206 and were sacrificed at 60 min. The selected tissues were collected, weighed, counted, and their %ID g^−1 values calculated for biodistribution analysis. The tissues included blood, muscle, tumor, thymus, heart, lung, liver, pancreas, stomach, small intestine, large intestine, spleen, adrenals, kidney, bladder, femur, and brain.

[2] = Ex vivo biodistribution in mice with MM1S tumor xenografts; settings: both sexes, NSG, mouse; for tissue uptake at 5 min: 5 min p.i.; for tissue uptake at 0.5 h: 30 min p.i.; for tissue uptake at 1 h: 60 min p.i.; for tissue uptake at 1.5 h: 90 min p.i.; for tissue uptake at 2 h: 120 min p.i.
Experimental: as §1, §2

[3] = adrenals, 80 µCi, MM1S xenograft mice, read-out: uptake in adrenals
[4] = bladder, 80 µCi, MM1S xenograft mice, read-out: uptake in bladder
[5] = blood, 80 µCi, total radioactivity, MM1S xenograft mice, read-out: uptake in blood
[6] = brain, 80 µCi, MM1S xenograft mice, read-out: uptake in brain
[7] = femur, 80 µCi, MM1S xenograft mice, read-out: uptake in femur
[8] = heart, 80 µCi, total radioactivity, MM1S xenograft mice, read-out: uptake in heart
[9] = kidney, 80 µCi, MM1S xenograft mice, read-out: uptake in kidney
[10] = large intestine (with contents), 80 µCi, MM1S xenograft mice, read-out: uptake in large intestine (with contents)

Compound CC[C@H](C)[C@@H]1NC(=O)[C@@H]2CCCN2C(=O)[C@H](Cc2ccccc2)NC(=O)[C@H](CC(=O)O)NC(=O)[C@H](C)NC(=O)[C@@H]2CSCc3cc(cc(c3)CSC[C@H](NC(=O)[C@H](C)NC(=O)CCOCCOCCOCCNC(=O)CN3CCN(CC(=O)O)CCN(CC(=O)O)CC3)C(=O)N[C@@H](C(C)C)C(=O)N3CCC[C@H]3C(=O)N2)CSC[C@@H](C(N)=O)NC(=O)[C@H](Cc2ccc(O)cc2)NC(=O)[C@H](Cc2c[nH]c3ccccc23)NC1=O [[^68Ga]Ga‐AJ206, metal not drawn] has a tissue uptake at 1 h ([1]; blood, read-out: uptake in blood) of 0.32 ± 0.06 %ID/g, a tissue uptake at 1 h ([1]; femur, read-out: uptake in femur) of 0.13 ± 0.02 %ID/g and a tissue uptake at 1 h ([1]; heart, read-out: uptake in heart) of 0.15 ± 0.02 %ID/g. It also gave a tissue uptake at 1 h ([1]; kidney, read-out: uptake in kidney) of 21.5 ± 2.68 %ID/g, a tissue uptake at 1 h ([1]; liver, read-out: uptake in liver) of 0.78 ± 0.06 %ID/g and a tissue uptake at 1 h ([1]; lung, read-out: uptake in lung) of 0.42 ± 0.04 %ID/g. For the same compound, the tissue uptake at 1 h ([1]; muscle, read-out: uptake in muscle) was 0.08 ± 0.01 %ID/g, the tissue uptake at 1 h ([1]; small intestine, read-out: uptake in small intestine) was 0.16 ± 0.01 %ID/g and the tissue uptake at 1 h ([1]; spleen, read-out: uptake in spleen) was 0.24 ± 0.01 %ID/g. For the same compound, the tissue uptake at 1 h ([1]; stomach, read-out: uptake in stomach) was 0.39 ± 0.3 %ID/g, the tissue uptake at 1 h ([1]; tumor, read-out: uptake in tumor) was 0.25 ± 0.03 %ID/g and the tissue to tissue ratio at 1 h ([1]; tumor/blood, read-out: Tumor/Blood ratio) was 0.83 ± 0.09. It also gave a tissue to tissue ratio at 1 h ([1]; tumor/muscle, read-out: Tumor/Muscle ratio) of 3.43 ± 0.28, a tissue uptake at 5 min [2, 3] of 5.07 ± 0.11 %ID/g and a tissue uptake at 0.5 h [2, 3] of 2.08 ± 0.38 %ID/g. It also gave a tissue uptake at 1 h [2, 3] of 0.59 ± 0.06 %ID/g, a tissue uptake at 1.5 h [2, 3] of 0.44 ± 0.1 %ID/g and a tissue uptake at 2 h [2, 3] of 0.57 ± 0.14 %ID/g. It also gave a tissue uptake at 5 min [2, 4] of 9.35 ± 1.87 %ID/g, a tissue uptake at 0.5 h [2, 4] of 4.51 ± 0.93 %ID/g and a tissue uptake at 1 h [2, 4] of 0.75 ± 0.08 %ID/g. For the same compound, the tissue uptake at 1.5 h [2, 4] was 1.23 ± 0.1 %ID/g, the tissue uptake at 2 h [2, 4] was 0.9 ± 0.37 %ID/g and the tissue uptake at 1 h ([2]; blood, 2 mg/kg, MM1S xenograft mice with blocking dose (2 mg kg^−1 AJ206), read-out: uptake in blood) was 2.17 ± 1.17 %ID/g. The tissue uptake at 2 h ([2]; blood, 80 µCi, MM1S xenograft mice, read-out: uptake in blood) was 0.33 ± 0.07 %ID/g, the tissue uptake at 5 min [2, 5] was 20.7 ± 1.68 %ID/g and the tissue uptake at 0.5 h [2, 5] was 2.95 ± 0.37 %ID/g. It also gave a tissue uptake at 1 h [2, 5] of 0.75 ± 0.29 %ID/g, a tissue uptake at 1.5 h [2, 5] of 0.75 ± 0.24 %ID/g and a tissue uptake at 5 min [2, 6] of 0.44 ± 0.07 %ID/g. It also gave a tissue uptake at 0.5 h [2, 6] of 0.21 ± 0.12 %ID/g, a tissue uptake at 1 h [2, 6] of 0.06 ± 0.03 %ID/g and a tissue uptake at 1.5 h [2, 6] of 0.03 ± 0.01 %ID/g. The tissue uptake at 2 h [2, 6] was 0.02 ± 0.01 %ID/g, the tissue uptake at 1 h ([2]; femur, 2 mg/kg, MM1S xenograft mice with blocking dose (2 mg kg^−1 AJ206), read-out: uptake in femur) was 0.25 ± 0.09 %ID/g and the tissue uptake at 5 min [2, 7] was 3.37 ± 0.31 %ID/g. For the same compound, the tissue uptake at 0.5 h [2, 7] was 0.86 ± 0.06 %ID/g, the tissue uptake at 1 h [2, 7] was 0.33 ± 0.12 %ID/g and the tissue uptake at 1.5 h [2, 7] was 0.28 ± 0.05 %ID/g. For the same compound, the tissue uptake at 2 h [2, 7] was 0.09 ± 0.02 %ID/g, the tissue uptake at 1 h ([2]; heart, 2 mg/kg, MM1S xenograft mice with blocking dose (2 mg kg^−1 AJ206), read-out: uptake in heart) was 0.33 ± 0.03 %ID/g and the tissue uptake at 5 min [2, 8] was 6.38 ± 0.42 %ID/g. It also gave a tissue uptake at 0.5 h [2, 8] of 1 ± 0.15 %ID/g, a tissue uptake at 1 h [2, 8] of 0.29 ± 0.03 %ID/g and a tissue uptake at 1.5 h [2, 8] of 0.35 ± 0.08 %ID/g. For the same compound, the tissue uptake at 2 h [2, 8] was 0.16 ± 0.01 %ID/g, the tissue uptake at 1 h ([2]; kidney, 2 mg/kg, MM1S xenograft mice with blocking dose (2 mg kg^−1 AJ206), read-out: uptake in kidney) was 15.9 ± 1.12 %ID/g and the tissue uptake at 5 min [2, 9] was 31.5 ± 4.15 %ID/g. For the same compound, the tissue uptake at 0.5 h [2, 9] was 21.6 ± 2.02 %ID/g, the tissue uptake at 1 h [2, 9] was 14.1 ± 0.57 %ID/g and the tissue uptake at 1.5 h [2, 9] was 13.2 ± 1.59 %ID/g. For the same compound, the tissue uptake at 2 h [2, 9] was 9.39 ± 1.5 %ID/g, the tissue uptake at 5 min [2, 10] was 3.11 ± 0.38 %ID/g and the tissue uptake at 0.5 h [2, 10] was 0.75 ± 0.04 %ID/g. For the same compound, the tissue uptake at 1 h [2, 10] was 0.29 ± 0.03 %ID/g, the tissue uptake at 1.5 h [2, 10] was 0.27 ± 0.05 %ID/g and the tissue uptake at 2 h [2, 10] was 0.27 ± 0.19 %ID/g. For the same compound, the tissue uptake at 1 h ([2]; liver, 2 mg/kg, MM1S xenograft mice with blocking dose (2 mg kg^−1 AJ206), read-out: uptake in liver) was 1.45 ± 0.26 %ID/g and the tissue uptake at 5 min ([2]; liver, 80 µCi, total radioactivity, MM1S xenograft mice, read-out: uptake in liver) was 30.3 ± 3.51 %ID/g.

Source: article PMC11040352, “CD38‐Specific Gallium‐68 Labeled Peptide Radiotracer Enables Pharmacodynamic Monitoring in Multiple Myeloma with PET” (Advanced Science, 2024)
